Data on 21 compounds can be found in US11191762B2, “Alkyl substituted triazole compounds as agonists of the APJ Receptor” (priority 2016, dated 2021).

Read-outs that look alike come from different tables or passages of the source.

This assay deals with human APJ receptor (Homo sapiens (Human), UniProt P35414). Description: biochemical. The class given is biochemical. The note with it: read-out: Activity hAPJ SPA EC50 IP. The procedure, abridged:
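[35S]GTPγS binding to membranes from CHO cells stably expressing human APJ, captured on WGA PS beads (5 μg/well). Buffer: 20 mM HEPES pH 7.5, 5 mM MgCl2, 100 mM NaCl, 0.1% BSA, with 3 μM GDP and 0.1 nM [35S]GTPγS final; compounds tested as 22-point 2-fold dilutions.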

The mark [1] stands for this setting: [35S]GTPγS binding, membranes from CHO cells stably expressing human APJ receptor.

Chain of human APJ receptor (P35414 whole entry): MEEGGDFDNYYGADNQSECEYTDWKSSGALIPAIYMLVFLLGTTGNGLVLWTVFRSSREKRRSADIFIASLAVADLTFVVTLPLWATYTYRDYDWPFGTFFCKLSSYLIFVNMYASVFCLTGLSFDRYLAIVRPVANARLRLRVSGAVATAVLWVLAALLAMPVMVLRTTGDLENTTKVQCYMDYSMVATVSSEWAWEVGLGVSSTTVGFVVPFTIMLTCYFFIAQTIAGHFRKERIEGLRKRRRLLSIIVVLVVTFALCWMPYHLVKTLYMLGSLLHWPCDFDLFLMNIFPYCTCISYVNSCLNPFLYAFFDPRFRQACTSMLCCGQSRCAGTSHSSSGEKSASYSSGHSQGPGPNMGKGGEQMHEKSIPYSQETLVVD

Take `COc1cccc(OC)c1-n1c(CCc2ccco2)nnc1NS(=O)(=O)[C@@H](C)[C@H](C)c1ncc(Cl)cn1` [Example 36.0, (2S,3R)-3-(5-chloro-2-pyrimidinyl)-N-(4-(2,6-dimethoxyphenyl)-5-(2-(2-furanyl)ethyl)-4H-1,2,4-triazol-3-yl)-2-butanesulfonamide]: the EC50 under setting [1] is 2.9 nM.

Take `COCc1nnc(NS(=O)(=O)[C@@H](C)[C@H](C)c2ncc(F)cn2)n1-c1c(OC)cccc1OC` [Example 68.0, (2S,3R)-N-(4-(2,6-dimethoxyphenyl)-5-(methoxymethyl)-4H-1,2,4-triazol-3-yl)-3-(5-fluoropyrimidin-2-yl)butane-2-sulfonamide]: the EC50 is 33 nM.

As to `CCCCc1nnc(NS(=O)(=O)[C@@H](C)[C@H](OC)c2ncc(Cl)cn2)n1-c1c(OC)cccc1OC` [Example 174.0], the EC50 stood at 0.3 nM.

Take `COCc1nnc(NS(=O)(=O)[C@@H](C)[C@H](OC)c2ncc(Cl)cn2)n1C(COC)COC` [Example 124.0, (1R,2S)-1-(5-Chloro-2-pyrimidinyl)-N-(4-(1,3-dimethoxy-2-propanyl)-5-(methoxymethyl)-4H-1,2,4-triazol-3-yl)-1-methoxy-2-propanesulfonamide]: the EC50 under setting [1] turned out to be 85 nM.

Consider `COc1cccc(OC)c1-n1c(C[C@@H]2CCS(=O)(=O)C2)nnc1NS(=O)(=O)[C@@H](C)[C@H](C)c1ncc(Cl)cn1` (mixture of isomers) [Example 47.0, (2S,3R)-3-(5-chloro-2-pyrimidinyl)-N-(4-(2,6-dimethoxyphenyl)-5-(((3R)-1,1-dioxidotetrahydro-3-thiophenyl)methyl)-4H-1,2,4-triazol-3-yl)-2-butanesulfonamide and (2S,3R)-3-(5-chloro-2-pyrimidinyl)-N-(4-(2,6-dimethoxyphenyl)-5-(((3S)-1,1-dioxidotetrahydro-3-thiophenyl)methyl)-4H-1,2,4-triazol-3-yl)-2-butanesulfonamide], for which, under setting [1], the EC50 is 70 nM.

As to `COc1ncnc(OC)c1-n1c(COC(F)F)nnc1NS(=O)(=O)[C@@H](C)[C@H](OC)c1ncc(Cl)cn1` [Example 128.0, (1R,2S)-1-(5-chloropyrimidin-2-yl)-N-(5-((difluoromethoxy)methyl)-4-(4,6-dimethoxypyrimidin-5-yl)-4H-1,2,4-triazol-3-yl)-1-methoxypropane-2-sulfonamide], under setting [1], the EC50 came to 60 nM.

Take `COCc1nnc(NS(=O)(=O)[C@@H](C)[C@H](OC)c2ncc(Cl)cn2)n1C(C)C` [Example 144.0]: the EC50 under setting [1] was determined as 1200 nM.

As for `CCO[C@H](c1ncc(C)cn1)[C@H](C)S(=O)(=O)Nc1nnc(COC)n1-c1c(OC)cccc1OC` [Example 73.0, (1R,2S)-N-(4-(2,6-dimethoxyphenyl)-5-(methoxymethyl)-4H-1,2,4-triazol-3-yl)-1-ethoxy-1-(5-methylpyrimidin-2-yl)propane-2-sulfonamide], the EC50 turned out to be 37.5 nM.

Turning to `CCC(CC)n1c(COC)nnc1NS(=O)(=O)[C@@H](C)[C@H](OC)c1ncc(Cl)cn1` [Example 147.0], under setting [1], the EC50 stood at 170 nM.

Take `COCc1nnc(NS(=O)(=O)[C@@H](C)[C@H](OC)c2ncc(Cl)cn2)n1C1(c2cccnc2)CC1` [Example 140.0, (1R,2S)-1-(5-chloropyrimidin-2-yl)-1-methoxy-N-(5-(methoxymethyl)-4-(1-(pyridin-3-yl)cyclopropyl)-4H-1,2,4-triazol-3-yl)propane-2-sulfonamide]: the EC50 under setting [1] was found to be 29 nM.

With `COCc1nnc(NS(=O)(=O)[C@@H](C)[C@H](C)c2ccc(Cl)cn2)n1-c1c(OC)cccc1OC` [Example 75.0, (2S,3R)-3-(5-chloropyridin-2-yl)-N-(4-(2,6-dimethoxyphenyl)-5-(methoxymethyl)-4H-1,2,4-triazol-3-yl)butane-2-sulfonamide], the EC50 is 3.1 nM.

As to `COc1cccc(OC)c1-n1c(CN2CCCC2=O)nnc1NS(=O)(=O)[C@@H](C)[C@H](C)c1ncc(Cl)cn1` [Example 41.0, (2S,3R)-3-(5-chloro-2-pyrimidinyl)-N-(4-(2,6-dimethoxyphenyl)-5-((2-oxo-1-pyrrolidinyl)methyl)-4H-1,2,4-triazol-3-yl)-2-butanesulfonamide], under setting [1], the EC50 was found to be 320 nM.

On to `COCc1nnc(NS(=O)(=O)[C@@H](C)[C@H](C)c2cnc(C)cn2)n1-c1c(OC)ncnc1OC` [Example 9.0, (2S,3R)-N-(4-(4,6-dimethoxy-5-pyrimidinyl)-5-(methoxymethyl)-4H-1,2,4-triazol-3-yl)-3-(5-methyl-2-pyrazinyl)-2-butanesulfonamide], for which the EC50 under setting [1] turned out to be 630 nM.

Take `COc1cccc(OC)c1-n1c(NS(=O)(=O)[C@@H](C)[C@H](C)c2ncc(Cl)cn2)nnc1C(F)(F)c1ccccn1` [Example 136.0]: under setting [1], the EC50 is 35 nM.

With `COc1ncnc(OC)c1-n1c(NS(=O)(=O)[C@@H](C)[C@H](O)c2ncc(C)cn2)nnc1C(C)(C)c1ccccc1` [Example 138.0], the EC50 under setting [1] amounted to 860 nM.

Regarding `COc1ncnc(OC)c1-n1c(CC(C)C)nnc1NS(=O)(=O)[C@@H](C)[C@H](OC)c1ncc(Cl)cn1` [Example 31.0, (1R,2S)-1-(5-chloro-2-pyrimidinyl)-N-(4-(4,6-dimethoxy-5-pyrimidinyl)-5-(2-methylpropyl)-4H-1,2,4-triazol-3-yl)-1-methoxy-2-propanesulfonamide], under setting [1], the EC50 is 7.6 nM.

Consider `COc1cccc(OC)c1-n1c(CC2COC2)nnc1NS(=O)(=O)[C@@H](C)[C@H](C)c1ncc(Cl)cn1` [Example 34.0, (2S,3R)-3-(5-chloro-2-pyrimidinyl)-N-(4-(2,6-dimethoxyphenyl)-5-(3-oxetanylmethyl)-4H-1,2,4-triazol-3-yl)-2-butanesulfonamide], for which the EC50 under setting [1] worked out at 16 nM.

Consider “(1R.2S)-1-(5-chloropyrimidin-2-yl)-1-methoxy-N-(4-(1-methylcyclopropyl)-5-(((R)-tetrahydrofuran-2-yl)methyl)-4H-1,2,4-triazol-3-yl)propane-2-sulfonamide or (1R,2S)-1-(5-chloropyrimidin-2-yl)-1-methoxy-N-(4-(1-methylcyclopropyl)-5-(((S)-tetrahydrofuran-2-yl)methyl)-4H-1,2,4-triazol-3-yl)propane-2-sulfonamide [Example 57.0]”, for which the EC50 under setting [1] worked out at 42 nM.

Take `COc1cccc(OC)c1-n1c(CCN2CCN(C)CC2)nnc1NS(=O)(=O)[C@@H](C)[C@H](OC)c1ncc(C)cn1` [Example 53.0]: the EC50 under setting [1] turned out to be 54 nM.

Take `COc1cccc(OC)c1-n1c(Cc2nc(C)cs2)nnc1NS(=O)(=O)[C@@H](C)[C@H](C)c1ncc(Cl)cn1` [Example 44.0, (2S,3R)-3-(5-chloro-2-pyrimidinyl)-N-(4-(2,6-dimethoxyphenyl)-5-((4-methyl-1,3-thiazol-2-yl)methyl)-4H-1,2,4-triazol-3-yl)-2-butanesulfonamide]: the EC50 under setting [1] is 36 nM.

Take `COc1ncnc(OC)c1-n1c(Cc2ccccc2)nnc1NS(=O)(=O)[C@@H](C)[C@H](OC)c1ncc(Cl)cn1` [Example 22.0, (1R,2S)-N-(5-benzyl-4-(4,6-dimethoxy-5-pyrimidinyl)-4H-1,2,4-triazol-3-yl)-1-(5-chloro-2-pyrimidinyl)-1-methoxy-2-propanesulfonamide]: under setting [1], the EC50 was found to be 120 nM.
